Results from PMC5781335, “Identification of danthron as an isoform-specific inhibitor of HEME OXYGENASE-1/cytochrome P450 reductase interaction with anti-tumor activity” (Journal of Biomedical Science, 2018).
Blank lines part the entries; values can stand above or below the molecule they belong to.

Assays:
[1] = biological target: T1, heme oxygenase-1 (HO-1) (Homo sapiens, UniProt P09601); assay: cell-based BRET inhibition of HO-1/CPR interaction in HEK293T
T1 construct: gene HMOX1; Luc-HO-1 (N-terminal luciferase fusion); with cytochrome P450 reductase (CPR-GFP)
T1 sequence (P09601 1-288): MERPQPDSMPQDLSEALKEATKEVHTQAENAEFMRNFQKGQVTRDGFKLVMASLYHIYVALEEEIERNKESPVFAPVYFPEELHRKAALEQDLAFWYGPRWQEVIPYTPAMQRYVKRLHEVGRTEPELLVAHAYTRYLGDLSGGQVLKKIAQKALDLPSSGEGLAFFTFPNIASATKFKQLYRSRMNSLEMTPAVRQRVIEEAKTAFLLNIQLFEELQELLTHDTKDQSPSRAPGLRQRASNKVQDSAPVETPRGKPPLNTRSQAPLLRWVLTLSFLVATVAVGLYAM
T1 sequence (P16435 2-677 partner): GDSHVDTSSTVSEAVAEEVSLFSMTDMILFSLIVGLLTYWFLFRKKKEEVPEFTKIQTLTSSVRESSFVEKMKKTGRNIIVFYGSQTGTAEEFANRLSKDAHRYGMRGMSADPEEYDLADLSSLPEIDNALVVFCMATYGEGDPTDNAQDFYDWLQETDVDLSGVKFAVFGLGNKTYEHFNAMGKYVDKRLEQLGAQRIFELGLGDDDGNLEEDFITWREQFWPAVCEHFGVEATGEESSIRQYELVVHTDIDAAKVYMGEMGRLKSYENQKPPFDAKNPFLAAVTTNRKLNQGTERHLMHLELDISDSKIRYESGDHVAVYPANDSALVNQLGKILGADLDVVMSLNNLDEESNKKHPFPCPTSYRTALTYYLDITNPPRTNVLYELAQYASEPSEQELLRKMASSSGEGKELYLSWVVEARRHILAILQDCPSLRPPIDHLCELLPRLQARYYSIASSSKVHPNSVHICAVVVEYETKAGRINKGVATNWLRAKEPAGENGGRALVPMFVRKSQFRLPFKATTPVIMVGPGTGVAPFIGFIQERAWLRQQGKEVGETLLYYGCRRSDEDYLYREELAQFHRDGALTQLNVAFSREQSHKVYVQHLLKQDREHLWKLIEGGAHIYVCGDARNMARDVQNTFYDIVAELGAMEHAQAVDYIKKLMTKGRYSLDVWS

[2] = biological target: T2, heme oxygenase-1 (HO-1) (Homo sapiens, UniProt P09601); assay: pull-down of purified His-HO-1 by resin-bound CPR-GFP ([…] danthron); IC50 from cell-based BRET
T2 construct: gene HMOX1; truncated human HO-1 (aa 13–260), C-terminal 6 x His-tag (pull-down); Luc-HO-1 (BRET); with cytochrome P450 reductase (CPR-GFP)
T2 sequence (P09601 13-260): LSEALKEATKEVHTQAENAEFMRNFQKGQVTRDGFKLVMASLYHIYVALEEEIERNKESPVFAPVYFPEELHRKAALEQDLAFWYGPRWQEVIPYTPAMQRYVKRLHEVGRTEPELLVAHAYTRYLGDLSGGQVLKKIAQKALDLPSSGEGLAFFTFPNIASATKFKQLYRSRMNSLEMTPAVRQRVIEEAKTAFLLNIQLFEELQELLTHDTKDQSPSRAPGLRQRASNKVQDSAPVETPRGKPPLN
T2 sequence (P16435 2-677 partner): T1 sequence (P16435 2-677 partner)

[3] = biological target: T3, CPR construct with its carboxyl-terminus fused to GFP (CPR-GFP) (human, UniProt P16435 1-677); assay: pull-down; CPR-GFP immunoprecipitated from HEK293T lysate on anti-GFP-affinity Sepharose, washed, incubated with 1 ug His-HO-1 or His-HO-2 in 100 ul buffer A (20 mM Tris-HCl pH 7.4, 100 mM NaCl) at room temperature for 1 h, without or with 10 uM danthron or anthrarufin; blot with anti-His and anti-GFP; settings: both partners purified
T3 construct: human cytochrome P450 reductase (CPR) cDNA subcloned with GFP2 cDNA into a pCMV-2 vector; BRET acceptor; bait on anti-GFP Sepharose in the pull-down; also called cytochrome P450 reductase; source: HEK293T, transfected; not shown: GFP2, C-terminal, kept
T3 sequence (looked up): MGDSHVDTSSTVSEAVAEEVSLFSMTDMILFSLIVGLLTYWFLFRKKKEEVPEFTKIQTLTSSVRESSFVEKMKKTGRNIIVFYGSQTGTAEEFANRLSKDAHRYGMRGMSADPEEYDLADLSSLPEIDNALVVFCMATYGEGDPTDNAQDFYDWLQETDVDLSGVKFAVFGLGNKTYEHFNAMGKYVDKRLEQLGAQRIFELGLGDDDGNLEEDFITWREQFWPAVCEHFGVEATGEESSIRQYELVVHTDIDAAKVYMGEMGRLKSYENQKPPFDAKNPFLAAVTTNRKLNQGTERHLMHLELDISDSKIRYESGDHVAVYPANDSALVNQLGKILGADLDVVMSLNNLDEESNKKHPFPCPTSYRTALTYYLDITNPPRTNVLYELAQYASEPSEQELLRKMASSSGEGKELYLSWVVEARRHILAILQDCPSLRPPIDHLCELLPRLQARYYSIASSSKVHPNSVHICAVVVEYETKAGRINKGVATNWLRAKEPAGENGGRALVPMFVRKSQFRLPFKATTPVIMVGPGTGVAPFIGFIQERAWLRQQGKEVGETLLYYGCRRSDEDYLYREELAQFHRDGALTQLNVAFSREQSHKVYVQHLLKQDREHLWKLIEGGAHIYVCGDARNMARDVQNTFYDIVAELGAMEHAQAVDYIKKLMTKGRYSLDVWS

IC50 [1]: 10.4 µM
Molecule: O=C1c2cccc(O)c2C(=O)c2c(O)ccc(O)c21 [1,4,5-trihydroxyanthra-9,10-quinone]

IC50 [1]: 10.1 µM
Molecule: O=C1c2ccccc2C(=O)c2c(O)cccc21 [1-hydroxyanthra-9,10-quinone]

IC50 [2]: 2.09 µM
Molecule: O=C1c2cccc(O)c2C(=O)c2c(O)cccc21 [danthron]

binding result [3]: binds
B1: recombinant soluble His-tagged HO-2 (His-HO-2), human HO-2 construct (aa 33-288) (domain or fragment, UniProt P30519 33-288, looked up)
chain: LSELLKEGTKEAHDRAENTQFVKDFLKGNIKKELFKLATTALYFTYSALEEEMERNKDHPAFAPLYFPMELHRKEALTKDMEYFFGENWEEQVQCPKAAQKYVERIHYIGQNEPELLVAHAYTRYMGDLSGGQVLKKVAQRALKLPSTGEGTQFYLFENVDNAQQFKQLYRARMNALDLNMKTKERIVEEANKAFEYNMQIFNELDQAGSTLARETLEDGFPVHDGKGDMRKCPFYAAEQDKGALEGSSCPFRTAM
notes: human heme oxygenase-2, construct aa 33-288, in pQE-60 vector; not shown: His6, C-terminal, kept
